Results on 5 compounds are retold here after ChEMBL document CHEMBL4602606, “Differentiating the Pharmacodynamics and Toxicology of Macrolide and Ketolide Antibiotics” (J Med Chem, 2020).

One data set deals with Haemophilus influenzae. The data set can be described thus: Antibacterial activity against Haemophilus influenzae. In kind it is functional.
The nature of data set [1]: Maximum serum concentration in human at 500 mg, po measured within 2 hrs. In kind it is ADME, organism-based. The arrangement: dose 500 mg, route oral. The settings on record: in vivo.
Data set [2] can be described thus: Terminal half life in human. The following applies: read-out: beta t1/2. In kind it is ADME.
Data set [3] can be described thus: Protein binding in plasma (unknown origin). In kind it is ADME, cell-free. The following applies: read-out: PPB.
The nature of data set [4]: Maximum serum concentration in human at 500 mg, po. In kind it is ADME. The arrangement: dose 500 mg, route oral.
The subject of data set [5] is Streptococcus pneumoniae. The data set can be described thus: Antibacterial activity against erythromycin-susceptible Streptococcus pneumoniae. In kind it is functional.
Data set [6] addresses Neuronal acetylcholine receptor; alpha3/beta4 (Homo sapiens, UniProt P30926+P32297). The data set can be described thus: Inhibition of human alpha3beta4 nAChR assessed as […] in acetylcholine-induced normalized current at 2 uM (reference value: 78.5 +/- 10 uM). In kind it is protein-complex assay.
A short description of data set [7]: Inhibition of human nAChR expressed in human TE671 cells assessed as reduction in nicotine-induced current response by whole-cell patch-clamp method. The settings on record: TE-671. In kind it is cell-based. (In general: In patch-clamp work, channel activity is measured electrically.)
Data set [8] has as its system Streptococcus pneumoniae. The data set can be described thus: Antibacterial activity against erythromycin-resistant Streptococcus pneumoniae. In kind it is functional.

pEC50, pIC50: −log10 of the molar value. ≈ marks a conversion by molar mass, not a printed value. Some results are limits rather than exact numbers.

Neuronal acetylcholine receptor; alpha3/beta4, sequence (P30926 whole entry): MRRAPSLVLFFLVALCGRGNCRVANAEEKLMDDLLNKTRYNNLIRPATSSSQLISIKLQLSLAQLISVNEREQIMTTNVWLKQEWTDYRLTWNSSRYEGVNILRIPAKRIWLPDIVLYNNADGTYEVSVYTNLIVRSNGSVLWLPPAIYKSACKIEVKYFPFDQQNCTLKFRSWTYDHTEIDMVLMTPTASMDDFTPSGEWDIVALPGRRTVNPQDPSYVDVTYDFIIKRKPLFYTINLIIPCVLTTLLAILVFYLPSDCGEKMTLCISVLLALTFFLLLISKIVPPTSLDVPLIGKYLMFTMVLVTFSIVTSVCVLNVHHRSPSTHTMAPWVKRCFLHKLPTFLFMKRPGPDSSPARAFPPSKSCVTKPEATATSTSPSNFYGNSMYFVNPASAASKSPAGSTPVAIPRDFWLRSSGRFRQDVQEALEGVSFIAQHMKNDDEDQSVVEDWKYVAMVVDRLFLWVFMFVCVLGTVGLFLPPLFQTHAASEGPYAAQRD
Neuronal acetylcholine receptor; alpha3/beta4, sequence (P32297 whole entry): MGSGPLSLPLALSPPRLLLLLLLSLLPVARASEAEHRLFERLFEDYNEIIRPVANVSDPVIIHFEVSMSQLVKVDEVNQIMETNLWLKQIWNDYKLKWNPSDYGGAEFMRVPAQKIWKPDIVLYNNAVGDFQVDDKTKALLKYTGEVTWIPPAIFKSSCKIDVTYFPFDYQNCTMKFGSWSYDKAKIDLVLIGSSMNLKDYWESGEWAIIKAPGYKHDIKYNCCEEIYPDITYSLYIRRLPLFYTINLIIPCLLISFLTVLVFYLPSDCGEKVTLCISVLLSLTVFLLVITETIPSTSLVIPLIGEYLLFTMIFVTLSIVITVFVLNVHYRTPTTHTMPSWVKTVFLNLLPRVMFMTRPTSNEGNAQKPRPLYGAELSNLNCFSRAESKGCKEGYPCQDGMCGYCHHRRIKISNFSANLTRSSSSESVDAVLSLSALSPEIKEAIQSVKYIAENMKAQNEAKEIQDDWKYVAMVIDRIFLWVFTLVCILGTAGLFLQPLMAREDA

In the case of `CC[C@H]1OC(=O)[C@H](C)[C@@H](O[C@H]2C[C@@](C)(OC)[C@@H](O)[C@H](C)O2)[C@H](C)[C@@H](O[C@@H]2O[C@H](C)C[C@H](N(C)C)[C@H]2O)[C@](C)(O)C[C@@H](C)CN(C)[C@H](C)[C@@H](O)[C@]1(C)O` [AZITHROMYCIN], the MIC against Haemophilus influenzae is 0.25 µg/mL (≈ 0.334 µM). In [1], the Cmax was 350 to 450 µg/mL. Besides, the half-life in data set [2] lay in the range of 48 to 96 h.

In the case of `CC[C@H]1OC(=O)[C@H](C)C(=O)[C@H](C)[C@@H](O[C@@H]2O[C@H](C)C[C@H](N(C)C)[C@H]2O)[C@](C)(OCC=Cc2cnc3ccccc3c2)C[C@@H](C)C(=O)[C@H](C)[C@H]2NC(=O)O[C@@]21C` [CETHROMYCIN], in [3], the fraction unbound is less than 0.04.

In [4], `CC[C@H]1OC(=O)[C@H](C)[C@@H](O[C@H]2C[C@@](C)(OC)[C@@H](O)[C@H](C)O2)[C@H](C)[C@@H](O[C@@H]2O[C@H](C)C[C@H](N(C)C)[C@H]2O)[C@](C)(OC)C[C@@H](C)C(=O)[C@H](C)[C@@H](O)[C@]1(C)O` [CLARITHROMYCIN] came in with a Cmax of 2.5 µg/mL.

Regarding `CC[C@H]1OC(=O)[C@H](C)[C@@H](O[C@H]2C[C@@](C)(OC)[C@@H](O)[C@H](C)O2)[C@H](C)[C@@H](O[C@@H]2O[C@H](C)C[C@H](N(C)C)[C@H]2O)[C@](C)(O)C[C@@H](C)C(=O)[C@H](C)[C@@H](O)[C@]1(C)O` [ERYTHROMYCIN], the MIC against Haemophilus influenzae lay within 0.5 to 2 µg/mL (≈ 0.681 to 2.73 µM).

Turning to `CC[C@H]1OC(=O)[C@H](C)C(=O)[C@H](C)[C@@H](O[C@@H]2O[C@H](C)C[C@H](N(C)C)[C@H]2O)[C@](C)(OC)C[C@@H](C)C(=O)[C@H](C)[C@H]2N(CCCCn3cnc(-c4cccnc4)c3)C(=O)O[C@]12C` [TELITHROMYCIN], the MIC in the data set with Streptococcus pneumoniae [5] was determined as 0.06 µg/mL (≈ 0.0739 µM); against Streptococcus pneumoniae [8] it was 0.25 µg/mL (≈ 0.308 µM). Also, the pEC50 in [6] was 3.88. The pIC50 in data set [7] was 5.46.

Broadly, the Cmax is the highest concentration seen after dosing. The term pEC50 denotes the EC50 on a negative log10 scale, so that one unit is a factor of ten. Usually pIC50 stands for −log10 of the IC50, conventionally taken in molar units.
